Measured values taken from ChEMBL document CHEMBL4028831, “Improvement of hERG-ROMK index of spirocyclic ROMK inhibitors through scaffold optimization and incorporation of novel pharmacophores” (Bioorg Med Chem Lett, 2017).
pIC50: −log10 of the molar value. Blank lines part the entries; values can stand above or below the molecule they belong to. The source made the active and inactive calls. The rule behind the calls is not given here.

Legend:
[1] = Clearance in rat at 0.5 mg/kg, iv; details: in vivo
[2] = target: T1, ATP-sensitive inward rectifier potassium channel 1 (Homo sapiens, UniProt P48048); experiment: Inhibition of human ROMK channel expressed in HEK293 cells after 30 mins by FLIPR based thallium flux assay; format: cell-based
T1 sequence (P48048 whole entry): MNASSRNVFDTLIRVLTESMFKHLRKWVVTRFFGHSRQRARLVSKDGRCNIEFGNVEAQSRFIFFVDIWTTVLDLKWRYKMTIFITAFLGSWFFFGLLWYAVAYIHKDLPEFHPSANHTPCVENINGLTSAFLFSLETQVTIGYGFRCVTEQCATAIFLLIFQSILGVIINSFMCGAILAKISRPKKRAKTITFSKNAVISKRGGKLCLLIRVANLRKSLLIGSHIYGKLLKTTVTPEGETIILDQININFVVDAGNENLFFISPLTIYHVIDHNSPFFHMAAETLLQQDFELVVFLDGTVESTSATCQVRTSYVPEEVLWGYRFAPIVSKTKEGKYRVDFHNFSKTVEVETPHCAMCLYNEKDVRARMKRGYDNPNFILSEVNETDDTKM

[3] = Clearance in Wistar Han rat at 0.5 mg/kg, iv or 1 mg/kg, po; format: ADME, organism-based; details: in vivo
[4] = Volume of distribution at steady state in Wistar Han rat at 0.5 mg/kg, iv or 1 mg/kg, po; format: ADME, organism-based; details: in vivo, read-out: Vdss
Rattus norvegicus [5] = experiment: Dose normalized AUC in Wistar Han rat at 1 mg/kg, po; format: ADME, organism-based; details: in vivo
[6] = Half life in Wistar Han rat at 0.5 mg/kg, iv or 1 mg/kg, po; format: ADME, organism-based; details: in vivo
[7] = Oral bioavailability in Wistar Han rat at 1 mg/kg; format: ADME, organism-based; details: in vivo
[8] = target: T1, ATP-sensitive inward rectifier potassium channel 1; experiment: Inhibition of human ROMK expressed in CHO cells at -70 mV holding potential after 6 mins by whole cell patch clamp Qpatch method; format: cell-based
[9] = Clearance in Beagle dog at 1 mg/kg, iv; format: ADME, organism-based, Canis lupus familiaris; details: in vivo
[10] = Volume of distribution at steady state in Beagle dog at 1 mg/kg, iv; format: ADME, organism-based, Canis lupus familiaris; details: in vivo, read-out: Vdss
[11] = Half life in Beagle dog at 1 mg/kg, iv; format: ADME, organism-based, Canis lupus familiaris; details: in vivo
[12] = target: Voltage-gated inwardly rectifying potassium channel KCNH2 (Homo sapiens, UniProt Q12809); experiment: Displacement of [35S]MK499 from human ERG expressed in HEK293 cells
Chain of Voltage-gated inwardly rectifying potassium channel KCNH2 (Q12809 whole entry): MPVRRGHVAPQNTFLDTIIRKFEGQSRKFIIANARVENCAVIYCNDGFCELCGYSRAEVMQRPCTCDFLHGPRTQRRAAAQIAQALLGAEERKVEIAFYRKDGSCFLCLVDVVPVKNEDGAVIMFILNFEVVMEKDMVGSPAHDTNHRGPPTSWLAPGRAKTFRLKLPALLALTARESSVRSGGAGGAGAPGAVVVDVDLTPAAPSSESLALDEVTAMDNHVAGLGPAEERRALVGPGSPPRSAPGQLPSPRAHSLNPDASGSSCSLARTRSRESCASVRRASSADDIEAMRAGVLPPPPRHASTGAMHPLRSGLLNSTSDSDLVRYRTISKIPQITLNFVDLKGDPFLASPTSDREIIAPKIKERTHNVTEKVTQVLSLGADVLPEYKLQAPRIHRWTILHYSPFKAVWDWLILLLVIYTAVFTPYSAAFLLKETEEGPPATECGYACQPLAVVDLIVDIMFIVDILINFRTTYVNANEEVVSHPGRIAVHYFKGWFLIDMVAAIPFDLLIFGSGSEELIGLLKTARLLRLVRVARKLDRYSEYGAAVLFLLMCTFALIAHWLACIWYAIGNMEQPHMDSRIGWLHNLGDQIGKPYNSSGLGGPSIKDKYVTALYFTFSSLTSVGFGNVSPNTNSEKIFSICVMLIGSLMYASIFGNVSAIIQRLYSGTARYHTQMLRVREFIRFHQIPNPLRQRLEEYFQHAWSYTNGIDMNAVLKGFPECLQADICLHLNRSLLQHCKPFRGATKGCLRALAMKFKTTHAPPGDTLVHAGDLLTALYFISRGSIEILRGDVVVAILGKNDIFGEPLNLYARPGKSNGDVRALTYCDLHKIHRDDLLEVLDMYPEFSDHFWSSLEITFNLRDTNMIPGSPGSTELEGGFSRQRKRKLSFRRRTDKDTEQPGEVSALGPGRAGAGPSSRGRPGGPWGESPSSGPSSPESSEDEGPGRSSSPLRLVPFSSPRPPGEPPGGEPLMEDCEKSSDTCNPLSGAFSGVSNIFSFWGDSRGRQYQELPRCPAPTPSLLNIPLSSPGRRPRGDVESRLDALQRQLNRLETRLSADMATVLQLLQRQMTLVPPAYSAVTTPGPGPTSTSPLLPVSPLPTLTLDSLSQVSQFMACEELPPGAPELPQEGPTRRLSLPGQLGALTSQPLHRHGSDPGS

Homo sapiens = species: Homo sapiens; experiment: Selectivity ratio of IC50 for human ERG expressed in HEK293 cells to IC50 for human ROMK expressed in HEK293 cells; format: cell-based
Rattus norvegicus [13] = experiment: Antihypertensive activity in rat spontaneous hypertensive model assessed as change in systolic blood pressure at 3 mg/kg, po qd measured after 3 days; format: functional
Rattus norvegicus [14] = experiment: Antihypertensive activity in rat spontaneous hypertensive model assessed as induction of kaliuresis at 3 mg/kg, po qd measured after 3 days; format: functional, organism-based
Rattus norvegicus [15] = experiment: Antihypertensive activity in rat spontaneous hypertensive model assessed as induction of natriuresis at 3 mg/kg, po qd measured after 3 days; format: functional, organism-based
Rattus norvegicus [16] = experiment: Antihypertensive activity in rat spontaneous hypertensive model assessed as induction of diuresis at 3 mg/kg, po qd measured after 3 days; format: functional, organism-based
Rattus norvegicus [17] = experiment: Antihypertensive activity in rat spontaneous hypertensive model assessed as change in systolic blood pressure at 25 mg/kg, po qd measured after 3 days; format: functional

SMILES: Cc1c([C@@H](O)CN2CCC3(CC2)CCN(c2ccc(S(C)(=O)=O)cn2)C3)ccc2c1COC2=O
clearance [1]: 24.2 mL/min/kg

SMILES: Cc1c([C@@H](O)CN2CCC3(CC2)CCN(c2ccns2)C3)ccc2c1COC2=O
pIC50 [2]: 7.57

SMILES: Cc1c([C@@H](O)CN2CCC3(CC2)CCN(c2ccc(=O)n(C4CCCC4)n2)C3=O)ccc2c1COC2=O
pIC50 [2]: 7.39 | pIC50 [12]: 4.87 | Ratio IC50 (Homo sapiens): 329

SMILES: Cc1c([C@@H](O)CN2CCC3(CC2)CN(c2ccc(=O)n(C)n2)C3)ccc2c1COC2=O
pIC50 [2]: < 5.70

SMILES: Cc1c([C@@H](O)[C@H](C)N2CCC3(CCN(c4ccc(=O)n(C)n4)C3=O)CC2)ccc2c1COC2=O
pIC50 [12]: < 4.22

SMILES: COc1cc(N2CCC3(CCN(C[C@H](O)c4ccc5c(c4C)COC5=O)CC3)C2=O)ccn1
clearance [3]: 20.8 mL/min/kg | Vd [4]: 5 L/kg | AUC/dose (Rattus norvegicus [5]): 1.2 µM·kg·h/mg | half-life [6]: 4.1 h | bioavailability [7]: 66%

SMILES: Cc1c([C@@H](O)CN2CCC3(CC2)CN(c2ccns2)C(=O)O3)ccc2c1COC2=O
pIC50 [2]: 5.29

SMILES: Cc1c([C@@H](O)CN2CCC3(CC2)CCN(c2ccn(C)c(=O)c2)C3=O)ccc2c1COC2=O
pIC50 [2]: 5.12

SMILES: NS(=O)(=O)c1cc2c(cc1Cl)NCNS2(=O)=O [HYDROCHLOROTHIAZIDE]
Activity (Rattus norvegicus [17]): -7 mmHg

SMILES: Cc1nc(-n2cnnn2)ccc1[C@@H](O)CN1CCC2(CC1)CCN(c1ccc(=O)n(C)n1)C2=O
pIC50 [12]: 4.76 | Ratio IC50 (Homo sapiens): 66

SMILES: Cc1c([C@@H](O)CN2CCC3(CC2)CCN(c2cn(C)c(=O)cn2)C3=O)ccc2c1COC2=O
pIC50 [12]: < 4.22

SMILES: Cc1c([C@@H](O)CN2CCC3(CC2)CCN(c2ccc(=O)n(C(F)F)n2)C3=O)ccc2c1COC2=O
pIC50 [2]: 6.89 | pIC50 [12]: 4.72 | Ratio IC50 (Homo sapiens): 147

SMILES: Cc1nsc(N2CCC3(CCN(C[C@H](O)c4ccc5c(c4C)COC5=O)CC3)C2)n1
pIC50 [12]: 5.38 | Ratio IC50 (Homo sapiens): 17

SMILES: CCn1nc(N2CCC3(CCN(C[C@H](O)c4ccc5c(c4C)COC5=O)CC3)C2=O)ccc1=O
pIC50 [12]: 5.12 | Ratio IC50 (Homo sapiens): 99

SMILES: Cc1c([C@@H](O)CN2CCC3(CC2)CCN(c2ccns2)C3=O)ccc2c1COC2=O
Activity (Rattus norvegicus [13]): -6 mmHg | Activity (Rattus norvegicus [14]): inactive | Activity (Rattus norvegicus [15]): Active | Activity (Rattus norvegicus [16]): Active

SMILES: Cc1c([C@@H](O)CN2CCC3(CC2)CCN(c2cc(-c4ccccc4)no2)C3=O)ccc2c1COC2=O
pIC50 [12]: 7.27 | Ratio IC50 (Homo sapiens): 0.11

SMILES: Cn1nc(N2CCC3(CCN(C[C@H](O)c4ccc(-n5cnnn5)nn4)CC3)C2=O)ccc1=O
pIC50 [2]: 6.24 | pIC50 [12]: 5.51 | Ratio IC50 (Homo sapiens): 5

More lines, main results first:

pIC50 [2]: 7.74 | clearance [3]: 23 mL/min/kg | Vd [4]: 3.2 L/kg | AUC/dose (Rattus norvegicus [5]): 0.73 µM·kg·h/mg | half-life [6]: 2.4 h | bioavailability [7]: 45% | pIC50 [8]: 7.92
SMILES: Cc1cc(N2CCC3(CCN(C[C@H](O)c4ccc5c(c4C)COC5=O)CC3)C2=O)sn1

pIC50 [2]: 7.85 | clearance [3]: 7.8 mL/min/kg | Vd [4]: 1.8 L/kg | AUC/dose (Rattus norvegicus [5]): 3.8 µM·kg·h/mg | half-life [6]: 4.1 h | bioavailability [7]: 80% | pIC50 [8]: 8.30 | clearance [9]: 9.7 mL/min/kg | Vd [10]: 0.7 L/kg | half-life [11]: 1 h
SMILES: COc1nccc(N2CCC3(CCN(C[C@H](O)c4ccc5c(c4C)COC5=O)CC3)C2=O)n1

clearance [3]: 9.6 mL/min/kg | Vd [4]: 3 L/kg | AUC/dose (Rattus norvegicus [5]): 1.8 µM·kg·h/mg | half-life [6]: 4.7 h | bioavailability [7]: 47% | clearance [9]: 24.4 mL/min/kg | Vd [10]: 1.7 L/kg | half-life [11]: 1.3 h
SMILES: COc1nsc(N2CCC3(CCN(C[C@H](O)c4ccc5c(c4C)COC5=O)CC3)C2=O)n1
Activity (Rattus norvegicus [13]): -23 mmHg | Activity (Rattus norvegicus [14]): inactive | Activity (Rattus norvegicus [15]): Active | Activity (Rattus norvegicus [16]): Active

pIC50 [2]: 6.74
SMILES: Cc1c([C@@H](O)CN2CCC3(CC2)CCN(c2cnn(C)c(=O)c2)C3=O)ccc2c1COC2=O

pIC50 [2]: 5.98
SMILES: Cc1cc(=O)n(C)nc1N1CCC2(CCN(C[C@H](O)c3ccc4c(c3C)COC4=O)CC2)C1=O

pIC50 [2]: 6.72 | clearance [3]: 30.3 mL/min/kg | Vd [4]: 4.4 L/kg | AUC/dose (Rattus norvegicus [5]): 1.6 µM·kg·h/mg | half-life [6]: 2.6 h | bioavailability [7]: 120%
SMILES: Cc1nccc(N2CCC3(CCN(C[C@H](O)c4ccc5c(c4C)COC5=O)CC3)C2=O)n1
Activity (Rattus norvegicus [13]): -11 mmHg | Activity (Rattus norvegicus [14]): inactive | Activity (Rattus norvegicus [15]): Active | Activity (Rattus norvegicus [16]): Active

clearance [3]: 41 mL/min/kg | Vd [4]: 4.2 L/kg | AUC/dose (Rattus norvegicus [5]): 1 µM·kg·h/mg | half-life [6]: 1.9 h | bioavailability [7]: 106% | pIC50 [8]: 8.10
SMILES: Cc1nsc(N2CCC3(CCN(C[C@H](O)c4ccc5c(c4C)COC5=O)CC3)C2=O)n1
Activity (Rattus norvegicus [13]): -10 mmHg | Activity (Rattus norvegicus [14]): inactive | Activity (Rattus norvegicus [15]): Active | Activity (Rattus norvegicus [16]): Active

clearance [3]: 128 mL/min/kg | Vd [4]: 21.5 L/kg | AUC/dose (Rattus norvegicus [5]): 0.11 µM·kg·h/mg | half-life [6]: 2 h | bioavailability [7]: 37%
SMILES: Cc1c([C@@H](O)CN2CCC3(CC2)CCN(c2ccncc2)C3=O)ccc2c1COC2=O
